Measurements published in ChEMBL document CHEMBL2424607, “Synthesis, characterization, and computational studies on phthalic anhydride-based benzylidene-hydrazide derivatives as novel, potential anti-inflammatory agents” (2013).

Tests used:
Assay type in all cases: functional
Rattus norvegicus [1] = assay: Antiinflammatory activity against carrageenan-induced paw edema rat model assessed as inhibition of hind paw swelling administered 1 hr before carrageenan challenge measured after 2 hrs by plethysmometer relative to control
Mus musculus [2] = species: Mus musculus; assay: Analgesic activity in Swiss albino mouse assessed as duration of thermal-stimulus induced tail flick latency after 30 mins by tail immersion method (reference value: 2.13 +/- 0.03 seconds)
Mus musculus [3] = species: Mus musculus; assay: Analgesic activity in Swiss albino mouse assessed as duration of thermal-stimulus induced tail flick latency after 60 mins by tail immersion method (reference value: 3.01 +/- 0.04 seconds)
Rattus norvegicus [4] = assay: Antiinflammatory activity against carrageenan-induced paw edema rat model assessed as inhibition of hind paw swelling administered 1 hr before carrageenan challenge measured after 1 hr by plethysmometer relative to control
Mus musculus [5] = species: Mus musculus; assay: Analgesic activity in Swiss albino mouse assessed as duration of thermal-stimulus induced tail flick latency after 90 mins by tail immersion method (reference value: 3.87 +/- 0.10 seconds)
Rattus norvegicus [6] = assay: Antiinflammatory activity against carrageenan-induced paw edema rat model assessed as inhibition of hind paw swelling administered 1 hr before carrageenan challenge measured after 3 hrs by plethysmometer relative to control
Mus musculus [7] = assay: Analgesic activity in Swiss albino mouse assessed as duration of thermal-stimulus induced tail flick latency at 10 mg/kg after 60 mins by tail immersion method (reference value: 3.01 +/- 0.04 seconds)
Rattus norvegicus [8] = assay: Antiinflammatory activity against carrageenan-induced paw edema rat model assessed as inhibition of hind paw swelling at 10 mg/kg administered 1 hr before carrageenan challenge measured after 3 hrs by plethysmometer relative to control
Mus musculus [9] = assay: Analgesic activity in Swiss albino mouse assessed as duration of thermal-stimulus induced tail flick latency at 10 mg/kg after 30 mins by tail immersion method (reference value: 2.13 +/- 0.03 seconds)
Rattus norvegicus [10] = assay: Antiinflammatory activity against carrageenan-induced paw edema rat model assessed as inhibition of hind paw swelling at 10 mg/kg administered 1 hr before carrageenan challenge measured after 2 hrs by plethysmometer relative to control
Rattus norvegicus [11] = assay: Antiinflammatory activity against carrageenan-induced paw edema rat model assessed as inhibition of hind paw swelling at 10 mg/kg administered 1 hr before carrageenan challenge measured after 1 hr by plethysmometer relative to control
Mus musculus [12] = assay: Analgesic activity in Swiss albino mouse assessed as duration of thermal-stimulus induced tail flick latency at 10 mg/kg after 90 mins by tail immersion method (reference value: 3.87 +/- 0.10 seconds)

| SMILES | inhibition (INH) (Rattus norvegicus [1]) [%] | Time (Mus musculus [2]) [s] | Time (Mus musculus [3]) [s] | inhibition (INH) (Rattus norvegicus [4]) [%] | Time (Mus musculus [5]) [s] | inhibition (INH) (Rattus norvegicus [6]) [%] | Time (Mus musculus [7]) [s] | inhibition in vivo at 10 mg/kg (Rattus norvegicus [8]) [%] | Time (Mus musculus [9]) [s] | inhibition in vivo at 10 mg/kg (Rattus norvegicus [10]) [%] | inhibition in vivo at 10 mg/kg (Rattus norvegicus [11]) [%] | Time (Mus musculus [12]) [s] |
| --- | --- | --- | --- | --- | --- | --- | --- | --- | --- | --- | --- | --- |
| Cc1ccc(/C=N/NC(=O)CN2C(=O)c3ccccc3C2=O)cc1 | 24.6 | 3.32 | 3.86 | 17.8 | 4.5 | 25.3 | – | – | – | – | – | – |
| O=C(CN1C(=O)c2ccccc2C1=O)N/N=C/c1ccccc1 | 15.9 | 2.83 | 3.22 | 14.2 | 3.89 | 17.3 | – | – | – | – | – | – |
| O=C(CN1C(=O)c2ccccc2C1=O)N/N=C/c1ccc(O)cc1 | 43.4 | 3.42 | 3.83 | 23.2 | 4.12 | 50.6 | – | – | – | – | – | – |
| O=C(CN1C(=O)c2ccccc2C1=O)N/N=C/c1ccc(Cl)cc1 | 47.8 | 5.61 | 7.13 | 26.7 | 8.91 | 58.6 | – | – | – | – | – | – |
| O=C([O-])Cc1ccccc1Nc1c(Cl)cccc1Cl.[Na+] [DICLOFENAC SODIUM] | – | – | – | – | – | – | 5.06 | 68 | 3.06 | 60.8 | 39.8 | 10.93 |
| COc1cc(/C=N/NC(=O)CN2C(=O)c3ccccc3C2=O)cc(OC)c1OC | 40.5 | 3.83 | 4.04 | 26.7 | 4.21 | 49.4 | – | – | – | – | – | – |
| O=C(CN1C(=O)c2ccccc2C1=O)N/N=C/c1ccc([N+](=O)[O-])cc1 | 43.4 | 5.39 | 6.45 | 19.6 | 6.83 | 54.6 | – | – | – | – | – | – |
| COc1cc(/C=N/NC(=O)CN2C(=O)c3ccccc3C2=O)ccc1O | 53.6 | 4.53 | 6.22 | 32.1 | 9.09 | 64 | – | – | – | – | – | – |
| COc1cccc(/C=N/NC(=O)CN2C(=O)c3ccccc3C2=O)c1 | 49.2 | 3.21 | 3.94 | 28.5 | 4.92 | 61.4 | – | – | – | – | – | – |
| O=C(CN1C(=O)c2ccccc2C1=O)N/N=C/c1ccccc1[N+](=O)[O-] | 49.2 | 5.35 | 6.29 | 30.3 | 6.88 | 57.3 | – | – | – | – | – | – |
